In PMC5484023, “Multi-site binding of epigallocatechin gallate to human serum albumin measured by NMR and isothermal titration calorimetry” (Bioscience Reports, 2017):

Target: T1, human serum albumin (HSA) (Homo sapiens, UniProt P02768)
T1 construct: gene ALB; full-length, fatty acid and globulin-free HSA purified from serum
Assay: ITC ([…]°C, pH […]), two sets of independent sites; confirmed by 1H NMR chemical shift titration (Kd1 […])
Type: binding

T1 sequence (P02768 25-609): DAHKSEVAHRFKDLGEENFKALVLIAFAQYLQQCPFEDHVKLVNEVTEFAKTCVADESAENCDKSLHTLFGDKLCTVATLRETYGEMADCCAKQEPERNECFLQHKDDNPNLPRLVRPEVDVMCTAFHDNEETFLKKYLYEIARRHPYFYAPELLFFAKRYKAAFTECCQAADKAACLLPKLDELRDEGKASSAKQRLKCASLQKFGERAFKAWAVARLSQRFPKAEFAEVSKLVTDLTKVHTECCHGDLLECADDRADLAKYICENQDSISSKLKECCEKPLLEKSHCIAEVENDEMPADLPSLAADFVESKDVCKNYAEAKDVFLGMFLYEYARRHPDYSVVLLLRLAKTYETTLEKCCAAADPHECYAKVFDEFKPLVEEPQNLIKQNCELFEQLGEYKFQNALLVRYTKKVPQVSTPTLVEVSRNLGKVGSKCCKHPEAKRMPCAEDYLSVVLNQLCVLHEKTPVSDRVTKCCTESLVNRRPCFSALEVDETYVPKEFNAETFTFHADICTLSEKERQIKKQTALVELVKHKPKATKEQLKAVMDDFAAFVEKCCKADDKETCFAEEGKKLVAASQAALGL

`O=C(O[C@@H]1Cc2c(O)cc(O)cc2O[C@@H]1c1cc(O)c(O)c(O)c1)c1cc(O)c(O)c(O)c1` [epigallocatechin gallate] showed a Kd of 22 ± 4 µM.
